Experimental data taken from US8084627B2, “Hydroxymethyl fluorescein derivatives for use as biological markers and dyes” (University of Pittsburgh-of the Commonwealth System of …, priority 2007, dated 2011).

Key:
Zebrafish embryos = assay: Zebrafish embryo staining: localization and tissue permeability; assay type: in vivo; conditions: confocal projections of head and tail, 80 μm of embryonic interior
Description: Zebrafish embryos were stained with compound 3 and compound 4 in order to assess the localization and tissue permeability of each compound in vivo. This procedure had not previously been attempted in zebrafish embryos with an unconjugated fluorescein derivative. Therefore, the commercially available BODIPY TR methyl ester was used as a control stain since it has been successfully used for this purpose.[10] […] Yolk sacs and yolk extensions always appeared brighter than the embryos themselves (FIG. 3A-C). This is likely the result of compound accumulation within the lipidic yolk platelets that comprise almost the entire volume of the yolk.[11]
Structures containing little organic material, including scales and calcified otoliths, were not stained. Confocal sections of the dorsal midline (FIG. 3H, J, L) indicate that the notochord sheath and surrounding tissue are efficiently labeled, while the notochord vacuoles remain unstained.

live human cells = conditions: compared with Tokyo Green; cited from earlier work
[1] = carboxyl group replaced with methyl group; cited from earlier work

Structure (SMILES): COC(=O)COc1ccc(C2=[N+]3C(=Cc4ccc(-c5cccs5)n4[B-]3(F)F)C=C2)cc1 [BODIPY TR methyl ester]
- permeation of live tissue (Zebrafish embryos): permeate live tissue to similar extents

Structure (SMILES): Cc1ccccc1-c1c2cc(F)c(=O)cc-2oc2cc(O)c(F)cc12 [Pennsylvania Green]
- fluorescence in live human cells (live human cells): more fluorescent than Tokyo Green

Structure (SMILES): Cc1ccccc1-c1c2ccc(=O)cc-2oc2cc(O)ccc12 [Tokyo Green]
- quantum yield relative to fluorescein [1]: no loss of quantum yield
